Marks after values point to notes of the source that are not given here.
System: Male Sprague-Dawley rats
Assay: Colic distension model (visceral pain model in the rat), abdominal cramps counted

CCC(=O)C(=O)O.NC(N)=NCCC[C@H](N)C(=O)O [Arginine alpha-ketobutyrate, arginine alpha-ketobutyrate]
Number of abdominal cramps, Average (10 mg/kg p.o. pH 1): 15 | Number of abdominal cramps, Average (10 mg/kg p.o. pH 6): 9* | Activity in the colon distension model (in words) (p.o. at pH 1): inactive | Activity in the colon distension model (in words) (p.o. at pH 6 (neutral)): active

— patent US20040127413A1, “Enteric keto acid and amino acid salts and their use for preparing medicines” (priority 2001, published 2004)
